Active and inactive are the calls of the source. No cut-off for these calls is given here.
Columns and labels:
Mushroom tyrosinase [1] = molecular target: T1, Mushroom tyrosinase (Agaricus bisporus, UniProt O42713+Q00024+C7FF04+C7FF05)
Description: Inhibition of mushroom tyrosinase monophenolase activity using L-tyrosine as substrate preincubated for 10 mins followed by substrate addition and measured after 20 mins by absorbance based assay

[2] = zebrafish, in vivo, 45 h
Description: Toxicity in wildtype AB zebrafish assessed as minimum toxic concentration measured after 45 hrs

[3] = Metabolic stability in human plasma assessed as compound remaining at 100 uM incubated for 120 mins by LC/MS analysis; assay type: ADME, cell-free; settings: read-out: Stability
[4] = Metabolic stability in human liver microsomes assessed as intrinsic clearance at 1.5 uM preincubated for 5 mins followed by NADPH addition and measured after 10 mins by LC/MS analysis; assay type: ADME, Microsome; settings: time 15 min, read-out: CLH
Tyrosinase = molecular target: T2, Tyrosinase (Homo sapiens, UniProt P14679); assay: Binding affinity to tyrosinase (unknown origin) assessed as dissociation constant by SPR analysis
T2 sequence (P14679 whole entry): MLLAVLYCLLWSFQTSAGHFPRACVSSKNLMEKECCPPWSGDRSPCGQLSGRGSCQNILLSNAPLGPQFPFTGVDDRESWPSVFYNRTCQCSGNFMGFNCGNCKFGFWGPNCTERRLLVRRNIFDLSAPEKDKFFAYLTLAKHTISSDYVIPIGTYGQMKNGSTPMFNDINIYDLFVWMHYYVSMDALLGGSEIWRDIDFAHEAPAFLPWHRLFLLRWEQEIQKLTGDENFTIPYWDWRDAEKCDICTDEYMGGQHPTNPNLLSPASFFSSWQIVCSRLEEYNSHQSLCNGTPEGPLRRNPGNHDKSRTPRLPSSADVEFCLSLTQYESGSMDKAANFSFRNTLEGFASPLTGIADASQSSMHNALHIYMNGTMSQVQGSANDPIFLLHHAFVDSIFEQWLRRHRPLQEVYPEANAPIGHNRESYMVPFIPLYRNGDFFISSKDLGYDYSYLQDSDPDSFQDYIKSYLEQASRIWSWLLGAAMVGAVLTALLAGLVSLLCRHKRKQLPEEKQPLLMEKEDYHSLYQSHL

Mushroom tyrosinase [5] = molecular target: T1, Mushroom tyrosinase; remark: listed apart in the source
Description: Inhibition of mushroom tyrosinase diphenolase activity using L-dopamine as substrate preincubated for 10 mins followed by substrate addition and measured after 20 mins by absorbance based assay

[6] = Metabolic stability in human liver microsomes assessed as hepatic extraction ratio at 1.5 uM preincubated for 5 mins followed by NADPH addition and measured after 10 mins by LC/MS analysis; assay type: ADME, Microsome; settings: time 15 min, read-out: ERH
[7] = Metabolic stability in human liver microsomes assessed as half-life at 1.5 uM preincubated for 5 mins followed by NADPH addition and measured after 10 mins by LC/MS analysis; assay type: ADME, Microsome; settings: time 15 min
[8] = Metabolic stability in human liver microsomes assessed as compound remaining at 1.5 uM incubated for 45 mins by LC/MS analysis; assay type: ADME, Microsome; settings: read-out: Stability
[9] = Metabolic stability in human plasma assessed as half-life at 100 uM incubated for 120 mins by LC/MS analysis; assay type: ADME, cell-free
Danio rerio [10] = species: Danio rerio; assay: Anti-pigmentation activity in wildtype AB zebrafish assessed as depigmentation at 5 uM incubated for 45 hrs by anatomical microscopic analysis; assay type: functional
[11] = Toxicity in wildtype AB zebrafish assessed as effect on phenotype at 10 to 50 microM incubated for 45 hrs by anatomic microscopic analysis; parameters: species or system Danio rerio; settings: in vivo, dose 10-50 µM
Danio rerio [12] = species: Danio rerio; assay: Anti-pigmentation activity in wildtype AB zebrafish assessed as melanin looseness in head at 5 uM incubated for 45 hrs by anatomical microscopic analysis; assay type: functional, organism-based
[13] = Toxicity in wildtype AB zebrafish assessed as effect on growth at 10 to 50 microM incubated for 45 hrs by anatomic microscopic analysis; parameters: species or system Danio rerio; settings: in vivo, dose 10-50 µM
[14] = Toxicity in wildtype AB zebrafish assessed as effect on growth at 1 to 5 microM incubated for 45 hrs by anatomic microscopic analysis; parameters: species or system Danio rerio; settings: in vivo, dose 1-5 µM
[15] = Toxicity in wildtype AB zebrafish assessed as effect on phenotype at 1 to 5 microM incubated for 45 hrs by anatomic microscopic analysis; parameters: species or system Danio rerio; settings: in vivo, dose 1-5 µM
Danio rerio [16] = species: Danio rerio; assay: Anti-pigmentation activity in wildtype AB zebrafish assessed as melanin reduction in head at 5 uM incubated for 45 hrs by anatomical microscopic analysis; assay type: functional, organism-based

IC50 (Mushroom tyrosinase [1]) [µM] | IC50 (Mushroom tyrosinase [5]) [µM] | Structure (SMILES) | also measured
11.49 | 31.01 | Cc1ccc(/C=C/CN2CCN(C(=O)CCC(=O)Nc3ccccc3O)CC2)cc1 | MTC [2]: 5 µM; remaining at 2 h, 100 µM [3]: 94.6%; CLint scaled at 1.5 µM [4]: 65.2 mL/min/kg; Kd (Tyrosinase): 198 µM; hepatic extraction ratio at 10 min, 1.5 µM [6]: 0.759; half-life at 1.5 µM [7]: 24.6 min; remaining at 0.75 h, 1.5 µM [8]: 28.1%; half-life at 100 µM [9]: > 120 min
234.2 | 555.4 | Cc1ccc(C)c(NC(=O)CCN2CCCN(C/C=C/c3ccccc3)CC2)c1 | 
732.35 | > 800 | Cc1ccc(NC(=O)CC(=O)N2CCCN(C/C=C/c3ccccc3)CC2)c(C)c1 | 
681.3 | > 800 | Cc1ccc(NC(=O)CCC(=O)N2CCCN(C/C=C/c3ccccc3)CC2)c(C)c1 | 
> 800 | > 800 | Cc1cc(Cl)ccc1NC(=O)CN1CCCN(C/C=C/c2ccccc2)CC1 | 
393.05 | > 800 | Cc1ccc(C)c(NC(=O)CCC(=O)N2CCCN(C/C=C/c3ccccc3)CC2)c1 | 
> 800 | > 800 | Cc1ccccc1NC(=O)CN1CCCN(C/C=C/c2ccccc2)CC1 | 
652.9 | > 800 | Cc1ccc(NC(=O)CCCN2CCN(C/C=C/c3ccccc3)CC2)c(C)c1 | Activity (Danio rerio [10]): 9.98%; MTC [2]: 50 µM; Activity [11]: Toxic; Activity (Danio rerio [12]): Active; Activity [13]: Toxic; Activity [14]: Non-Toxic; Activity [15]: Non-Toxic; Activity (Danio rerio [16]): Active
255.4 | 465.1 | Cc1ccc(NC(=O)CCN2CCCN(C/C=C/c3ccccc3)CC2)c(C)c1 | 
465.1 | > 800 | Cc1cc(C)c(NC(=O)CCN2CCCN(C/C=C/c3ccccc3)CC2)c(C)c1 | 
192.93 | 329.55 | Cc1ccc(/C=C/CN2CCN(C(=O)CCCC(=O)Nc3ccccn3)CC2)cc1 | 
217.17 | > 800 | Cc1ccc(/C=C/CN2CCN(C(=O)CCC(=O)Nc3cccc(O)c3)CC2)cc1 | 
88.01 | 244.6 | Cc1cccc(C)c1NC(=O)CN1CCN(C/C=C/c2ccccc2)CC1 | 
> 800 | > 800 | Cc1ccc(NC(=O)CN2CCCN(C/C=C/c3ccccc3)CC2)c(C)c1 | 
744.95 | > 800 | Cc1ccc(C)c(NC(=O)CC(=O)N2CCCN(C/C=C/c3ccccc3)CC2)c1 | 
40.34 | 131.77 | Cc1ccc(/C=C/CN2CCN(C(=O)CCC(=O)Nc3ccc(O)cc3)CC2)cc1 | 
> 800 | > 800 | Cc1ccc(NC(=O)CCC(=O)Nc2cnn(C/C=C/c3ccccc3)c2)c(C)c1 | 
639.85 | > 800 | Cc1ccc(F)cc1NC(=O)CCN1CCCN(C/C=C/c2ccccc2)CC1 | 
248.7 | > 800 | Cc1cccc(C)c1NC(=O)CCCN1CCCN(C/C=C/c2ccccc2)CC1 | 
173 | 204.3 | Cc1ccc(/C=C/CN2CCN(C(=O)CCC(=O)Nc3ccccc3C)CC2)cc1 | 
338.4 | 536.05 | Cc1ccc(NC(=O)CCN2CCCN(C/C=C/c3ccccc3)CC2)cc1 | 
> 800 | > 800 | Cc1ccc(C)c(NC(=O)CN2CCCN(C/C=C/c3ccccc3)CC2)c1 | 
> 800 | > 800 | Cc1ccc(NC(=O)CCN2CCCN(C/C=C/c3ccccc3)CC2)cc1C | 

— ChEMBL document CHEMBL5506021, “Artificial Intelligence-Assisted Optimization of Antipigmentation Tyrosinase Inhibitors: De Novo Molecular Generation Based on a Low Activity Lead Compound” (J Med Chem, 2024)
